Results on ten sequences are retold here after US11846639B2, “Ligand discovery for T cell receptors” (priority 2014, dated 2023).

The test relates to AGA1 T cell receptor. As to the kind of experiment: Selection of yeast-displayed HLA-B5703 peptide library with AGA1 TCR, deep sequencing read counts. In kind it is binding. Conditions: for number of times the peptide was represented, Rd1: after round 1 of selection with AGA1 TCR; for number of times the peptide was represented, Rd2: after round 2 of selection with AGA1 TCR; for number of times the peptide was represented, Rd3: after round 3 of selection with AGA1 TCR; for number of times the peptide was represented, Rd4: after round 4 of selection with AGA1 TCR; for number of times the peptide was represented, Naïve: naïve library before selection. As to the method: Selection of pMHC libraries To maximize sensitivity of selections, all described selection steps were conducted at 4° using cold buffers, and refrigerated centrifuges. All spins were 5,000×g for 1 minute. Before each round of selection, a small sample of yeast (˜1×10^6 cells) were stained with an anti-epitope tag antibody. For the first round of selection, ˜2×10^9 yeast were washed once with PBS+0.5% BSA and 1 mM EDTA (PBE buffer) and then cleared with unloaded Streptavidin Microbeads (250 uL beads in 5 mL PBE) (Miltenyi, 130-048-101) to eliminate any nonspecifically binding yeast clones by incubating 1 hr at 4° with gentle rotation. The yeast were then spun down, resuspended in 5 mL PBE without a wash, and passed through a Miltenyi LS column. […] TCR-binding yeast were then selected via an LS column, washed in SDCAA, and then re-cultured in SDCAA, pH 4.5 at 30° C. overnight. Yeast were re-induced upon reaching OD>2. For each round of selection, at least 10-fold more yeast was used than recovered from the previous round to ensure complete coverage of all selected yeast. Second and third rounds of selection were conducted in the same manner, but with reduced volumes (50 µL of beads in 500 LL PBE). Progress of selections was monitored by counting of cells selected to TCR-bound streptavidin beads as compared to streptavidin beads alone via an Accuri C6 flow cytometer. […] For the final round of selection (conducted when the yeast count enriched by TCR loaded beads was higher than background, usually after 3 rounds), the libraries were stained with 500 nM streptavidin-TCR tetramer as described above, washed 3× with PBE, then incubated with 50 uL anti-Alexa647 Microbeads (Miltenyi, 130-091-395) in 450 µL PBE for 20 minutes. The yeast were washed a final time and passed through a Miltenyi LS column. Enriched yeast were then plated on SDCAA plates for characterization of individual colonies. Individual yeast clones were then screened for tetramer staining as described above. Plasmids containing the selected pMHC were isolated from positive clones via yeast miniprep (Zymoprep II kit, Zymo Research) and sequenced (Sequetech).
Deep sequencing of selection libraries. Pooled plasmids from 5×10^7 yeast from each round of selection were isolated via yeast miniprep (Zymoprep II kit, Zymo Research) and used as PCR template to prepare Illumina samples. Amplicon libraries were designed as follows: (Illumina P5-Truseq read 1-(N8)-Barcode-pMHC-(N8)-Truseq read 2-IlluminaP7). N8 was added immediately after both sequencing primers to generate diversity for low complexity sequencing reads. The adapter and barcode sequences were appended via nested 25-round cycles of PCR of the purified plasmids using Phusion polymerase (NEB). Primers were proximal to the peptide on the pMHC, annealing to the Aga2p leader sequence (5′ end) and MHC β1 domain (3′ end) to ensure high quality sequence reads of the peptide with double coverage. Final PCR products were run on a high percentage agarose gel and purified via gel extraction. PCR products were then quantitated via nanodrop, normalized for each barcoded round of selection to be equally represented, doped with 5-50% PhiX DNA to ensure sufficient sequence diversity for high quality sequence reads, and run on an Illumina MiSeq with 2×150 nt Paired End reads. The initial deep sequencing run, for the 2B4-I-E^k selections, was conducted with 1×150 nt Single End reads. When the sequencing data was analyzed as described below, we saw no significant difference in data quality between single and paired-end reads (as judged by comparing the results for 226/5cc7 when analyzed as single reads vs. paired-end reads). Deep sequencing was conducted at the Stanford Stem Cell Institute Genome Center.
The library was expressed and screened as described above in Example 1, with the AGA1 T cell receptor.
The top 20 peptides after round 3 has the sequences shown below in Table 3. […]

Take “SALRPEIRLLW [HLA-B5703 library peptide selected with AGA1 TCR]”: the “number of times the peptide was represented, Rd1” value (shortened to “number … Rd1”) was 50; the “number of times the peptide was represented, Rd2” value (shortened to “number … Rd2”) is given as 28840; the “number of times the peptide was represented, Rd3” value (shortened to “number … Rd3”) is reported as 21235; the “number of times the peptide was represented, Rd4” value (shortened to “number … Rd4”) amounted to 70740. The “number of times the peptide was represented, Naïve” value (shortened to “number … Naïve”) is 1.
Regarding “NSVKPEIRPVW [HLA-B5703 library peptide selected with AGA1 TCR]”, the “number … Rd1” value worked out at 10; the “number … Rd2” value stood at 10086; the “number … Rd3” value is 33679; the “number … Rd4” value turned out to be 32818. Further, the “number … Naïve” value was 6.
As to “ASFSPELRMAW [HLA-B5703 library peptide selected with AGA1 TCR]”, the “number … Rd1” value is 10; the “number … Rd2” value is 9925; the “number … Rd3” value turned out to be 47218; the “number … Rd4” value came to 31919. For the same sequence, the “number … Naïve” value is listed as 0.
On to “SSGVPEVRMMF [HLA-B5703 library peptide selected with AGA1 TCR]”, for which the “number … Rd1” value was 38; the “number … Rd2” value stood at 40422; the “number … Rd3” value came out at 215079; the “number … Rd4” value came out at 125041. Also, the “number … Naïve” value was 6.
Take “RSFYPEIREYW [HLA-B5703 library peptide selected with AGA1 TCR]”: the “number … Rd1” value worked out at 19; the “number … Rd2” value stood at 14782; the “number … Rd3” value is 119258; the “number … Rd4” value was 48648. Also, the “number … Naïve” value was determined as 7.
For the sequence “YSFKPELKEIF [HLA-B5703 library peptide selected with AGA1 TCR]”, the “number … Rd1” value is recorded as 5; the “number … Rd2” value was found to be 5648; the “number … Rd3” value was found to be 28641; the “number … Rd4” value is recorded as 20312. Further, the “number … Naïve” value stood at 0.
As to “WTYRPEVRGVW [HLA-B5703 library peptide selected with AGA1 TCR]”, the “number … Rd1” value is reported as 21; the “number … Rd2” value came to 30482; the “number … Rd3” value is 128915; the “number … Rd4” value was found to be 91015. For the same sequence, the “number … Naïve” value came to 4.
Turning to “NSLKPEIPDYF [HLA-B5703 library peptide selected with AGA1 TCR]”, the “number … Rd1” value worked out at 47; the “number … Rd2” value was determined as 48656; the “number … Rd3” value is listed as 268475; the “number … Rd4” value came out at 171826. In addition, the “number … Naïve” value stood at 11.
“GTIRPEIREMW [HLA-B5703 library peptide selected with AGA1 TCR]”: the “number … Rd1” value was 37; the “number … Rd2” value worked out at 36754; the “number … Rd3” value is listed as 226381; the “number … Rd4” value amounted to 113394. The “number … Naïve” value was found to be 5.
Take “SSFSPELRMRW [HLA-B5703 library peptide selected with AGA1 TCR]”: the “number … Rd1” value came to 10; the “number … Rd2” value was 14335; the “number … Rd3” value is listed as 98338; the “number … Rd4” value amounted to 48729. In addition, the “number … Naïve” value was 3.
